Experimental data: ChEMBL document CHEMBL1155185, “Design, synthesis, screening, and molecular modeling study of a new series of ROS1 receptor tyrosine kinase inhibitors” (Bioorg Med Chem Lett, 2009)

Target: Proto-oncogene tyrosine-protein kinase ROS (Homo sapiens) (UniProt P08922)
Assay: Inhibition of ROS1 at 20 uM by HotSpot assay

Sequence of Proto-oncogene tyrosine-protein kinase ROS (Homo sapiens) (P08922 whole entry): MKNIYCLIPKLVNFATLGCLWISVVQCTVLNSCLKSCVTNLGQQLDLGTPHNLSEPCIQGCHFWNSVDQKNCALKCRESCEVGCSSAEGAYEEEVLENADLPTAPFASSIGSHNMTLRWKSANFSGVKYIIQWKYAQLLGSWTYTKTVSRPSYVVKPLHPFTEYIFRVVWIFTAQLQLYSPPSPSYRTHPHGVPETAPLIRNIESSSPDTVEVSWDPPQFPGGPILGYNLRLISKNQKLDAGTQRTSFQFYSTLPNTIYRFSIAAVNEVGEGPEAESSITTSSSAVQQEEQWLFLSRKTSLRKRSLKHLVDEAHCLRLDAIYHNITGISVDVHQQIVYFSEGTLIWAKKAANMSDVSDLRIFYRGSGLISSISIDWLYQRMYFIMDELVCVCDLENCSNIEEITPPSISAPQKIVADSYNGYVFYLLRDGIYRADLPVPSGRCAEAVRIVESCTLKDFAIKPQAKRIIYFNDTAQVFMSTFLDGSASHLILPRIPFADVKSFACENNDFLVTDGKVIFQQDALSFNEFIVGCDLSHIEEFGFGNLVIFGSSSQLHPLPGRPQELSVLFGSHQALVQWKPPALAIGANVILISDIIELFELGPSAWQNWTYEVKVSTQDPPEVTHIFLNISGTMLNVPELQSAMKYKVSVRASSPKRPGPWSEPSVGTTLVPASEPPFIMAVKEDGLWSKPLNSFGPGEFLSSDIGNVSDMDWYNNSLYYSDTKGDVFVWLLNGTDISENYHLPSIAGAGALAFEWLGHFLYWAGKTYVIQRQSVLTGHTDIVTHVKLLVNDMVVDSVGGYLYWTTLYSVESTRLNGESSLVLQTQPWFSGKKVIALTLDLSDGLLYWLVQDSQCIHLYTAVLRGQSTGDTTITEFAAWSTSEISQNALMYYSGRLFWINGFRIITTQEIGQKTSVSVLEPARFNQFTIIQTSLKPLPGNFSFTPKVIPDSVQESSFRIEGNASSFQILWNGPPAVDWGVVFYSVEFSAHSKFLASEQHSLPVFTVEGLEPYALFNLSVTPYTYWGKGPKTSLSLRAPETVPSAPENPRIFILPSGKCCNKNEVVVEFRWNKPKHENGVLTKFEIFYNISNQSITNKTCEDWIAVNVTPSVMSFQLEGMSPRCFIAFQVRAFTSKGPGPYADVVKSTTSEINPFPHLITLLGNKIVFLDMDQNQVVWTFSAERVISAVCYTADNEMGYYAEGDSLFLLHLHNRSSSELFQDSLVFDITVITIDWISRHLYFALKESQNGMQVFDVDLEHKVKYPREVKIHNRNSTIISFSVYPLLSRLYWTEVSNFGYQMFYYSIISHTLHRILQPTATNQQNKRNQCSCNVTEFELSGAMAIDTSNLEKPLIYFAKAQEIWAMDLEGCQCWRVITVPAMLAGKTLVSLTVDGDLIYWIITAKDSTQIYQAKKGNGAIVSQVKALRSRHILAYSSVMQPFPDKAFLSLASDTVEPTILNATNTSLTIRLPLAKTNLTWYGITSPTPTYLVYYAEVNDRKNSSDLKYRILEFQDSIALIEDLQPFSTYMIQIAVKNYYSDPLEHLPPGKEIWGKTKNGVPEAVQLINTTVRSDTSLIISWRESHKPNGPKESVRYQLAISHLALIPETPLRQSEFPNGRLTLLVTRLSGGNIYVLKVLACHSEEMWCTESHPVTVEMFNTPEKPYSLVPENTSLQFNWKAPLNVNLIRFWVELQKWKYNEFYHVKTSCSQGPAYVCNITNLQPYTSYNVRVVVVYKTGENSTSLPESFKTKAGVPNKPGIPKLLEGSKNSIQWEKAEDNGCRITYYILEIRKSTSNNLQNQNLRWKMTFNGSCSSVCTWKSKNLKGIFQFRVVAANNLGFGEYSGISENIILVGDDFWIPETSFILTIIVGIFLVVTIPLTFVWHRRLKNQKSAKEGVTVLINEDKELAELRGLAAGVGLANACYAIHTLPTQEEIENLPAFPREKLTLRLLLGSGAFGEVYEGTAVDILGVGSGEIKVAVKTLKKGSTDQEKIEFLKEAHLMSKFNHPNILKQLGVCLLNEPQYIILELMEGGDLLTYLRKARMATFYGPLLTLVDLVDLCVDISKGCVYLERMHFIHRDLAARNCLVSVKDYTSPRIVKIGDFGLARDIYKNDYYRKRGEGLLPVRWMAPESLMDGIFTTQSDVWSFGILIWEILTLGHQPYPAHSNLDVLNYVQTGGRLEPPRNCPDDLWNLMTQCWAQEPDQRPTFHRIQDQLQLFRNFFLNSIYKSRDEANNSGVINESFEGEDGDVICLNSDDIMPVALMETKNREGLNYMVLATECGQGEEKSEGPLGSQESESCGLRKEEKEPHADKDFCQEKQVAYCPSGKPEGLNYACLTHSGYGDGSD

| inhibition [%] | Structure (SMILES) |
| --- | --- |
| < 30 | CC(=O)c1ccc(-c2cc(-c3cn(CC#N)nc3-c3cc(C)cc(O)c3)ccn2)cc1 |
| < 30 | Cc1cc(O)cc(-c2c(-c3ccnc(-c4ccc(N(C)C)cc4)c3)cnn2CC#N)c1 |
| < 30 | Cc1cc(O)cc(-c2c(-c3ccnc(-c4cccnc4)c3)cnn2CC#N)c1 |
| < 30 | CC(=O)Nc1ccccc1-c1cc(-c2cnn(CC#N)c2-c2cc(C)cc(O)c2)ccn1 |
| < 30 | COc1cc(C)cc(-c2c(-c3ccnc(-c4ccccc4)c3)cnn2CC#N)c1 |
| < 30 | COc1cc(C)cc(-c2nn(CC#N)cc2-c2ccnc(-c3cccc(NC(C)=O)c3)c2)c1 |
| < 30 | COc1cc(C)cc(-c2nn(CC#N)cc2-c2ccnc(-c3ccccc3)c2)c1 |
| < 30 | COc1cc(C)cc(-c2c(-c3ccnc(-c4cccc(NC(C)=O)c4)c3)cnn2CC#N)c1 |
| < 30 | COc1cc(C)cc(-c2c(-c3ccnc(-c4ccc(Oc5ccccc5)cc4)c3)cnn2CC#N)c1 |
| < 30 | CC(=O)c1ccccc1-c1cc(-c2cnn(CC#N)c2-c2cc(C)cc(O)c2)ccn1 |
| < 30 | CC(=O)Nc1cccc(-c2cc(-c3cnn(CC#N)c3-c3cc(C)cc(O)c3)ccn2)c1 |
| < 30 | Cc1cc(O)cc(-c2nn(CC#N)cc2-c2ccnc(-c3ccc(Oc4ccccc4)cc3)c2)c1 |
| < 30 | COc1cc(C)cc(-c2nn(CC#N)cc2-c2ccc(-c3ccccc3C(C)=O)nc2)c1 |
| < 30 | CC(=O)Nc1ccccc1-c1cc(-c2cn(CC#N)nc2-c2cc(C)cc(O)c2)ccn1 |
| < 30 | Cc1cc(O)cc(-c2nn(CC#N)cc2-c2ccnc(-c3ccc(N(C)C)cc3)c2)c1 |
| < 30 | CC(=O)c1cccc(-c2cc(-c3cnn(CC#N)c3-c3cc(C)cc(O)c3)ccn2)c1 |
| < 30 | COc1cc(C)cc(-c2c(-c3ccc(-c4ccccc4C(C)=O)nc3)cnn2CC#N)c1 |
| < 30 | CC(=O)c1ccccc1-c1ccc(-c2cn(CC#N)nc2-c2cc(C)cc(O)c2)cn1 |
| < 30 | CC(=O)c1ccccc1-c1ccc(-c2cnn(CC#N)c2-c2cc(C)cc(O)c2)cn1 |
| < 30 | Cc1cc(O)cc(-c2nn(CC#N)cc2-c2ccc(-c3cccnc3)nc2)c1 |
| < 30 | COc1cc(C)cc(-c2c(-c3ccnc(-c4ccccc4C(C)=O)c3)cnn2CC#N)c1 |
| < 30 | COc1cc(C)cc(-c2c(-c3ccc(-c4cccnc4)nc3)cnn2CC#N)c1 |
| < 30 | Cc1cc(O)cc(-c2c(-c3ccnc(-c4ccc(C#N)cc4)c3)cnn2CC#N)c1 |
| < 30 | Cc1cc(O)cc(-c2nn(CC#N)cc2-c2ccnc(-c3ccccc3)c2)c1 |
| < 30 | COc1cc(C)cc(-c2c(-c3ccnc(-c4ccc(C#N)cc4)c3)cnn2CC#N)c1 |
| < 30 | CC(=O)c1cccc(-c2ccc(-c3cn(CC#N)nc3-c3cc(C)cc(O)c3)cn2)c1 |

| inhibition [%] | Structure (SMILES) |
| --- | --- |
| < 30 | COc1cc(C)cc(-c2nn(CC#N)cc2-c2ccnc(-c3ccccc3C(C)=O)c2)c1 |
| < 30 | CC(=O)c1ccccc1-c1cc(-c2cn(CC#N)nc2-c2cc(C)cc(O)c2)ccn1 |
| < 30 | COc1cc(C)cc(-c2nn(CC#N)cc2-c2ccnc(-c3ccc(C(C)=O)cc3)c2)c1 |
| < 30 | COc1cc(C)cc(-c2c(-c3ccnc(-c4ccc(C(C)=O)cc4)c3)cnn2CC#N)c1 |
| < 30 | CC(=O)c1cccc(-c2cc(-c3cn(CC#N)nc3-c3cc(C)cc(O)c3)ccn2)c1 |
| < 30 | COc1cc(C)cc(-c2nn(CC#N)cc2-c2ccc(-c3cccnc3)nc2)c1 |
| < 30 | COc1cc(C)cc(-c2c(-c3ccc(-c4cccc(C(C)=O)c4)nc3)cnn2CC#N)c1 |
| < 30 | COc1cc(C)cc(-c2nn(CC#N)cc2-c2ccnc(-c3cccnc3)c2)c1 |
| < 30 | COc1cc(C)cc(-c2nn(CC#N)cc2-c2ccnc(-c3ccc(Oc4ccccc4)cc3)c2)c1 |
| < 30 | COc1cc(C)cc(-c2c(-c3ccnc(-c4cccnc4)c3)cnn2CC#N)c1 |
| < 30 | Cc1cc(O)cc(-c2c(-c3ccnc(-c4ccccc4)c3)cnn2CC#N)c1 |
| < 30 | Cc1cc(O)cc(-c2nn(CC#N)cc2-c2ccnc(-c3ccc(C#N)cc3)c2)c1 |
| < 30 | CC(=O)Nc1cccc(-c2cc(-c3cn(CC#N)nc3-c3cc(C)cc(O)c3)ccn2)c1 |
| < 30 | COc1cc(C)cc(-c2nn(CC#N)cc2-c2ccnc(-c3ccccc3NC(C)=O)c2)c1 |
| < 30 | COc1cc(C)cc(-c2nn(CC#N)cc2-c2ccnc(-c3ccc(N(C)C)cc3)c2)c1 |
| < 30 | Cc1cc(O)cc(-c2c(-c3ccnc(-c4ccc(Oc5ccccc5)cc4)c3)cnn2CC#N)c1 |
| < 30 | CC(=O)c1cccc(-c2ccc(-c3cnn(CC#N)c3-c3cc(C)cc(O)c3)cn2)c1 |
| < 30 | COc1cc(C)cc(-c2nn(CC#N)cc2-c2ccnc(-c3cccc(C(C)=O)c3)c2)c1 |
| < 30 | COc1cc(C)cc(-c2c(-c3ccnc(-c4ccccc4NC(C)=O)c3)cnn2CC#N)c1 |
| < 30 | COc1cc(C)cc(-c2nn(CC#N)cc2-c2ccnc(-c3ccc(C#N)cc3)c2)c1 |
| < 30 | COc1cc(C)cc(-c2c(-c3ccnc(-c4ccc(N(C)C)cc4)c3)cnn2CC#N)c1 |
| < 30 | COc1cc(C)cc(-c2nn(CC#N)cc2-c2ccc(-c3cccc(C(C)=O)c3)nc2)c1 |
| < 30 | CC(=O)c1ccc(-c2cc(-c3cnn(CC#N)c3-c3cc(C)cc(O)c3)ccn2)cc1 |
| 96 | Cc1cc(O)cc(-c2nn(CC#N)cc2-c2ccnc(-c3cccnc3)c2)c1 |
| < 30 | COc1cc(C)cc(-c2c(-c3ccnc(-c4cccc(C(C)=O)c4)c3)cnn2CC#N)c1 |
